Legend:
[1] = target: S1P1 (Homo sapiens (Human), UniProt P21453); test: 35S-GTPγS binding assay, S1P1 membranes; type: biochemical; settings: membranes from CHO cells expressing S1P1; read-out: S1P1 GTPyS EC50
Procedure: Membranes were prepared from CHO cells expressing S1P1 or S1P3 for use in ligand and […] binding studies. Cells were suspended in 50 mM TRIS, pH 7.4, 2 mM EDTA, 250 mM Sucrose (buffer A) and 1× Complete protease inhibitor cocktail (Roche), and disrupted at 4° C. by nitrogen decompression using a cell disruption bomb (Parr Instrument). Following centrifugation at 1000 RPM for 10 min at 4° C., the supernatant was suspended in buffer A and centrifuged again at 19000 RPM for 60 min at 4° C. The pellet was then suspended in 10 mM HEPES, pH 7.4, 1 mM EDTA, 250 mM Sucrose (Buffer B), and 1× Complete EDTA-free protease inhibitor cocktail and homogenized using a potter. Membranes were flash frozen in liquid nitrogen and stored at −80° C. [33P]sphingosine 1-phosphate (3000 Ci/mmol; American Radiolabeled Chemicals, Inc.) was added to test compounds in DMSO. […] Binding was performed for 60 min at room temperature on a shaker and bound radioactivity was measured on a PerkinElmer 1450 MicroBeta counter. Specific binding was calculated by subtracting remaining radioactivity in the presence of 1000-fold excess of unlabeled S1P. Binding data were analyzed using the GraphPad Prism program.
(§1) The assay was initiated with the addition of 20 μl of 1.5 nM [35S]-GTPγS (1100 Ci/mmol; GE Healthcare) in assay buffer. After 60 min incubation at 30° C. on a shaker, plates were centrifuged for 10 min at 2000 RPM. Supernatant was discarded and membrane bound radioactivity was measured on a PerkinElmer 1450 MicroBeta counter. Triplicate samples were averaged and expressed as % response relative to SIP activation in absence of compound (n=2).

[2] = target: S1P3 (Homo sapiens (Human), UniProt Q99500); test: 35S-GTPγS binding assay, S1P3 membranes; type: biochemical; settings: membranes from CHO cells expressing S1P3; read-out: S1P3 GTPyS EC50
Sequence of S1P3 (Q99500 whole entry, species assumed): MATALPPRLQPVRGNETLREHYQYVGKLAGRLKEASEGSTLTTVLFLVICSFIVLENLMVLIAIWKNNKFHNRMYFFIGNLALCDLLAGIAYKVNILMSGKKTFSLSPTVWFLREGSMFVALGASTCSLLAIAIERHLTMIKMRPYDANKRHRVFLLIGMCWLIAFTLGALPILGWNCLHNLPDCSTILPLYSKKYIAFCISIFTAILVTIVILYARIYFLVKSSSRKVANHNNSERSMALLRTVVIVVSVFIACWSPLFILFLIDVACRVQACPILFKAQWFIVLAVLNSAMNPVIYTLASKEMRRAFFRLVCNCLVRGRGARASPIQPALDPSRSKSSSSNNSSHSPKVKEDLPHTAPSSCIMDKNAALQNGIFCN
Procedure: Membranes were prepared from CHO cells expressing S1P1 or S1P3 for use in ligand and […] binding studies. Cells were suspended in 50 mM TRIS, pH 7.4, 2 mM EDTA, 250 mM Sucrose (buffer A) and 1× Complete protease inhibitor cocktail (Roche), and disrupted at 4° C. by nitrogen decompression using a cell disruption bomb (Parr Instrument). Following centrifugation at 1000 RPM for 10 min at 4° C., the supernatant was suspended in buffer A and centrifuged again at 19000 RPM for 60 min at 4° C. The pellet was then suspended in 10 mM HEPES, pH 7.4, 1 mM EDTA, 250 mM Sucrose (Buffer B), and 1× Complete EDTA-free protease inhibitor cocktail and homogenized using a potter. Membranes were flash frozen in liquid nitrogen and stored at −80° C. [33P]sphingosine 1-phosphate (3000 Ci/mmol; American Radiolabeled Chemicals, Inc.) was added to test compounds in DMSO. Membranes and WGA SPA beads (GE Healthcare) were added to give a final volume of 100 μl in 96-well plates with assay concentrations of […] [33P]sphingosine 1-phosphate (respectively for S1P1 or S1P3), 50 mM HEPES, pH 7.5, 5 mM MgCl2, 100 mM NaCl, 0.4% fatty acid-free BSA, 1-5 μg/well of proteins and 100 μg/well of WGA SPA beads. Binding was performed for 60 min at room temperature on a shaker and bound radioactivity was measured on a PerkinElmer 1450 MicroBeta counter. Specific binding was calculated by subtracting remaining radioactivity in the presence of 1000-fold excess of unlabeled S1P. Binding data were analyzed using the GraphPad Prism program.
as §1, with “Measurements of ^35S-GTPγS Binding: Membranes (1 to 10 μg protein) prepared as described above, were incubated in 96-well Scintiplates (PerkinElmer) with test compounds diluted in DMSO, in 180 μl of 20 mM HEPES, pH 7.4, 10 mM MgCl2, 2 μg/well Saponin, 0.2% fatty acid free BSA (Assay buffer), 140 mM NaCl and 1.7 μM GDP. The” for “The”

Sequence of S1P1 (P21453 whole entry, species assumed): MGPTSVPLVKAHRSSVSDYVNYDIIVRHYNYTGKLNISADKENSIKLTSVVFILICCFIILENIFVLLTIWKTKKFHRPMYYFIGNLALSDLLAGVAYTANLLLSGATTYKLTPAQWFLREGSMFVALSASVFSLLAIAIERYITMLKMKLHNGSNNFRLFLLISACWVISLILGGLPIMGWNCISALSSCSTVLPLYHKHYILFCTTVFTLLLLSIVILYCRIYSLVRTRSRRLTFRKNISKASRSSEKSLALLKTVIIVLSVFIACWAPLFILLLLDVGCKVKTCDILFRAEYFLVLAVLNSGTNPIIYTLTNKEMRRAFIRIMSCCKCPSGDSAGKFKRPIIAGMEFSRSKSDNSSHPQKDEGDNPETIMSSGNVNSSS

| Structure (SMILES) | EC50 [1] [nM] | EC50 [2] [nM] |
| --- | --- | --- |
| CCCN(CC1CC1)c1cc(C(=O)Nc2ccc(S(=O)(=O)NC)cc2C)ncn1 [Example 1-109] | 63 | > 20000 |
| CCCN(CC1CC1)c1cc(C(=O)Nc2ccc(CNCC(=O)O)cc2C)ncn1 [Example 1-100] | – | > 20000 |
| CN(c1cc(C(=O)Nc2ccc(S(=O)(=O)NCC(O)CO)cc2)ncn1)C1CCCCC1 (stereo not shown) [Example 1-40] | 1520 | > 20000 |
| CCCN(c1cc(C(=O)Nc2ccc(S(N)(=O)=O)cc2C)ncn1)C(C)C [Example 1-60] | 51 | > 20000 |
| O=C(Nc1ccnc2ccccc12)c1cc(N(CC2CC2)C2CCCCC2)ncn1 [Example 1-46] | 19 | 1160 |
| CCCN(CC1CC1)c1cc(C(=O)Nc2ccc3[nH]ncc3c2)ncn1 [Example 1-45] | 13 | 416 |
| CC(C)CN(c1cc(C(=O)Nc2ccc3[nH]ncc3c2)ncn1)C1CCCC1 [Example 1-69] | – | 666 |
| O=C(Nc1ccc2[nH]ncc2c1)c1cc(N(CC2CC2)C2CCCCC2)ncn1 [Example 1-44] | 9 | > 20000 |
| O=C(Nc1cccc2[nH]ncc12)c1cc(N(CC2CC2)C2CCCCC2)ncn1 [Example 1-127] | 48 | > 20000 |
| CCCN(CC1CC1)c1cc(C(=O)Nc2ccc(S(=O)(=O)NCCC(=O)O)cc2C)ncn1 [Example 1-99] | – | 5650 |
| CCCN(CCC)c1cc(C(=O)Nc2ccc(S(N)(=O)=O)cc2C)ncn1 [Example 1-57] | 36 | > 20000 |
| CCCN(CCC)c1cc(C(=O)Nc2ccc(O)cc2)ncn1 [Example 1-22] | 370 | 2320 |
| COC(=O)CCNCc1ccc(NC(=O)c2cc(N(CC3CC3)C3CCCCC3)ncn2)cc1 [Example 1-76] | 48 | 777 |
| O=C(Nc1ccc(CN2CC(C(=O)O)C2)cc1)c1cc(N(CC2CC2)C2CCCCC2)ncn1 [Example 1-84] | – | 236 |
| CCCN(CC1CC1)c1cc(C(=O)Nc2cccc3[nH]ccc23)ncn1 [Example 1-113] | – | > 20000 |
| O=C(O)CCCS(=O)(=O)c1ccc(NC(=O)c2cc(N(CC3CC3)C3CCCCC3)ncn2)cc1 [Example 1-132] | 40 | 85 |
| CCCN(CC1CC1)c1cc(C(=O)Nc2ccc(S(N)(=O)=O)cc2C)ncn1 [Example 1-56] | – | > 20000 |
| CN(c1cc(C(=O)Nc2ccc(S(N)(=O)=O)cc2)ncn1)C1CCCCC1 [Example 1-30] | 674 | – |
| CCCN(c1cc(C(=O)Nc2ccc3[nH]ncc3c2)ncn1)C(C)C [Example 1-67] | 68 | – |
| CCCN(CC1CC1)c1cc(C(=O)Nc2ccc(CN(C)CC(=O)O)cc2C)ncn1 [Example 1-128] | 816 | – |
| CCCN(CC1CC1)c1cc(C(=O)Nc2ccc3[nH]nc(CCC(=O)OC)c3c2)ncn1 [Example 1-123] | 860 | – |
| CCCN(CC1CC1)c1cc(C(=O)Nc2ccc3[nH]nc(CCC(=O)O)c3c2)ncn1 [Example 1-129] | 1710 | – |
| CCOCN(CCOC)c1cc(C(=O)Nc2ccc(S(N)(=O)=O)cc2C)ncn1 [Example 1-59] | 558 | – |
| CCC(NCc1ccc(NC(=O)c2cc(N(CC3CC3)C3CCCCC3)ncn2)cc1)C(=O)O (stereo not shown) [Example 1-80] | 287 | – |
| CCCN(CC1CC1)c1cc(C(=O)Nc2ccc(S(=O)(=O)NCC(=O)O)cc2C)ncn1 [Example 1-103] | 208 | – |
| CCOC(=O)CCS(=O)(=O)Cc1ccc(NC(=O)c2cc(N(CC3CC3)C3CCCCC3)ncn2)cc1 [Example 1-130] | 537 | – |
| CN(c1cc(C(=O)Nc2ccc(S(=O)(=O)NCCO)cc2)ncn1)C1CCCCC1 [Example 1-37] | 907 | – |

Further lines, results first:

| EC50 [1] [nM] | EC50 [2] [nM] | Structure (SMILES) |
| --- | --- | --- |
| 6 | 3270 | Cc1cc2[nH]ncc2cc1NC(=O)c1cc(N(CC2CC2)C2CCCCC2)ncn1 [Example 1-47] |
| 1780 | 32000 | CN(c1cc(C(=O)Nc2ccc3c(c2)CC(=O)N3)ncn1)C1CCCCC1 [Example 1-41] |
| 240 | > 30000 | O=C(Nc1ccc(O)cc1)c1cc(OC2CCCCC2)ncn1 [Example 1-26] |
| 19 | 3300 | COCCNS(=O)(=O)c1ccc(NC(=O)c2cc(N(CC3CC3)C3CCCCC3)ncn2)c(C)c1 [Example 1-107] |
| 132 | > 20000 | Cc1cc(O)ccc1NC(=O)c1cc(OC2CCCCC2)ncn1 [Example 1-34] |
| – | 1310 | Cc1cc(S(=O)(=O)NCCCC(=O)O)ccc1NC(=O)c1cc(N(CC2CC2)C2CCCCC2)ncn1 [Example 1-63] |
| 2.9 | 1990 | CCCN(c1cc(C(=O)Nc2ccc(S(N)(=O)=O)cc2C)ncn1)C1CCCCC1 [Example 1-54] |
| – | > 30000 | O=C(Nc1ccc(O)c2ccccc12)c1cc(NC2CCCCC2)ncn1 [Example 1-5] |
| 400 | > 30000 | CCN(c1cc(C(=O)Nc2ccc(O)cc2C)ncn1)C1CCCCC1 [Example 1-25] |
| 2 | 47500 | Cc1cc(S(N)(=O)=O)ccc1NC(=O)c1cc(N(CC2CC2)C2CCCCC2)ncn1 [Example 1-38] |
| 211 | 2330 | Cc1cc2[nH]ncc2cc1NC(=O)c1cc(N(C)C2CCCCC2)ncn1 [Example 1-39] |
| – | > 30000 | O=C(Nc1ccc(O)cc1)c1cc(NC2CCCCC2)ncn1 [Example 1-53] |
| – | > 30000 | O=C(Nc1ccc2[nH]ncc2c1)c1cc(NC2CCCCC2)ncn1 [Example 1-28] |
| – | > 30000 | O=C(Nc1ccc(O)cc1F)c1cc(NC2CCCCC2)ncn1 [Example 1-7] |
| 24.6 | 100000 | Cc1cc(O)ccc1NC(=O)c1cc(N(CC2CC2)C2CCCCC2)ncn1 [Example 1-33] |
| – | > 30000 | CN(c1cc(C(=O)Nc2ccc(O)cc2)ncn1)C1CCCCC1 [Example 1-19] |
| 418 | > 20000 | CN(c1cc(C(=O)Nc2ccc3[nH]ncc3c2)ncn1)C1CCCCC1 [Example 1-35] |
| 2920 | > 20000 | CCC(C)Oc1cc(C(=O)Nc2ccc(O)cc2C)ncn1 (stereo not shown) [Example 1-36] |
| 380 | > 30000 | O=C(Nc1ccc(O)cc1C(F)(F)F)c1cc(NC2CCCCC2)ncn1 [Example 1-15] |
| – | > 20000 | CCCN(CC1CC1)c1cc(C(=O)Nc2ccc(CO)cc2C)ncn1 [Example 1-85] |
| – | 62 | Cc1cc(S(=O)(=O)NCCC(=O)O)ccc1NC(=O)c1cc(N(CC2CC2)C2CCCCC2)ncn1 [Example 1-62] |
| 5.8 | 2470 | CNS(=O)(=O)c1ccc(NC(=O)c2cc(N(CC3CC3)C3CCCCC3)ncn2)c(C)c1 [Example 1-105] |
| – | > 30000 | CS(=O)(=O)Nc1ccc(NC(=O)c2cc(NC3CCCCC3)ncn2)cc1 [Example 1-13] |
| 1070 | 5230 | O=C(Nc1ccnc2ccccc12)c1cc(NC2CCCCC2)ncn1 [Example 1-16] |
| 39 | > 20000 | Cc1cc(S(N)(=O)=O)ccc1NC(=O)c1cc(N(CC(C)C)C2CCCC2)ncn1 [Example 1-58] |
| – | > 30000 | Cc1cc(O)ccc1NC(=O)c1cc(NC2CCCCC2)ncn1 [Example 1-1] |
| – | > 30000 | O=C(Nc1ccc(CCO)cc1)c1cc(NC2CCCCC2)ncn1 [Example 1-52] |
| – | > 30000 | O=C(Nc1ccc(O)cc1Cl)c1cc(NC2CCCCC2)ncn1 [Example 1-8] |

From patent publication US9150519B2, “6-amino-pyrimidine-4-carboxamide derivatives and related compounds which bind to the sphingosine 1-phosphate (S1P) receptor for the treatment of multiple sclerosis” (MERCK SERONO SA, priority 2007, dated 2015)
